Holding throughout (format): biochemical
In one assay the target is T1, EphB3 (Homo sapiens, UniProt P54753).
T1 sequence (P54753 34-998): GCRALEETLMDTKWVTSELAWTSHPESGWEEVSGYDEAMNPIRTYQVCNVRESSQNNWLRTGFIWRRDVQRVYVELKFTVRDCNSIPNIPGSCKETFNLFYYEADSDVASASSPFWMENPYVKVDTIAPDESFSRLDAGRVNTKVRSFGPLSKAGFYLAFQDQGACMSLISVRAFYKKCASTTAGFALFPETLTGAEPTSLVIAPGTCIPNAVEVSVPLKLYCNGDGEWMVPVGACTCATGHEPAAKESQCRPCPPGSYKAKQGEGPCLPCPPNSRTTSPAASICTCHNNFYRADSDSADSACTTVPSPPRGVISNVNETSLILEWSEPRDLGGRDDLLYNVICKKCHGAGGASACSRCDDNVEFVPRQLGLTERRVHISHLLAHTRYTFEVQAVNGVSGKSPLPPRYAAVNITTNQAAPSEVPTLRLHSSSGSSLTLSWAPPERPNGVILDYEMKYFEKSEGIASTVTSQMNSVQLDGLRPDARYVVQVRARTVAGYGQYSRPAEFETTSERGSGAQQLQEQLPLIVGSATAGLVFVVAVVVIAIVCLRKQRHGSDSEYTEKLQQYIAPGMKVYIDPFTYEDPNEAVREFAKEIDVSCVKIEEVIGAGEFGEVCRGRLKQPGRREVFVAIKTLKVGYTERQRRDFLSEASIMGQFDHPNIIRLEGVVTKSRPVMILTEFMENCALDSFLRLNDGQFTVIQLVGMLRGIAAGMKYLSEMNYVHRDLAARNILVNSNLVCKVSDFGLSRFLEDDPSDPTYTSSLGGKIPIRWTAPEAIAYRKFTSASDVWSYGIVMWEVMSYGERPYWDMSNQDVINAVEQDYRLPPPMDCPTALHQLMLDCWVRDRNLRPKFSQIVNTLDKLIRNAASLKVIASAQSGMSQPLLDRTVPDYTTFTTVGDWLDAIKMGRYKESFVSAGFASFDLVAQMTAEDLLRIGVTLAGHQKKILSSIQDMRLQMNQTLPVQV
Nature of the assay: EphB3 radiometric kinase activity assay (33P ATP filter binding). The following applies: for remaining activity at 0.01 µM: 10 nM compound, read-out: EphB3 % act 10 nM; for remaining activity at 0.1 µM: 100 nM compound, read-out: EphB3 % act 100 nM; for remaining activity at 0.3 µM: 300 nM compound, read-out: EphB3 % act 300 nM. The method, then: EphB3 radiometric kinase activity assay. To study the EphB3 kinase activity, a radioactive filter binding assay using 33P ATP was performed as described at the […] International Centre for Kinase profiling. […] The mix was harvested onto P81 filter plates and counts were read on a Topcount NXT.

The next assay concerns the target T2, EphB4 (Homo sapiens, UniProt P54760).
T2 sequence (P54760 16-987): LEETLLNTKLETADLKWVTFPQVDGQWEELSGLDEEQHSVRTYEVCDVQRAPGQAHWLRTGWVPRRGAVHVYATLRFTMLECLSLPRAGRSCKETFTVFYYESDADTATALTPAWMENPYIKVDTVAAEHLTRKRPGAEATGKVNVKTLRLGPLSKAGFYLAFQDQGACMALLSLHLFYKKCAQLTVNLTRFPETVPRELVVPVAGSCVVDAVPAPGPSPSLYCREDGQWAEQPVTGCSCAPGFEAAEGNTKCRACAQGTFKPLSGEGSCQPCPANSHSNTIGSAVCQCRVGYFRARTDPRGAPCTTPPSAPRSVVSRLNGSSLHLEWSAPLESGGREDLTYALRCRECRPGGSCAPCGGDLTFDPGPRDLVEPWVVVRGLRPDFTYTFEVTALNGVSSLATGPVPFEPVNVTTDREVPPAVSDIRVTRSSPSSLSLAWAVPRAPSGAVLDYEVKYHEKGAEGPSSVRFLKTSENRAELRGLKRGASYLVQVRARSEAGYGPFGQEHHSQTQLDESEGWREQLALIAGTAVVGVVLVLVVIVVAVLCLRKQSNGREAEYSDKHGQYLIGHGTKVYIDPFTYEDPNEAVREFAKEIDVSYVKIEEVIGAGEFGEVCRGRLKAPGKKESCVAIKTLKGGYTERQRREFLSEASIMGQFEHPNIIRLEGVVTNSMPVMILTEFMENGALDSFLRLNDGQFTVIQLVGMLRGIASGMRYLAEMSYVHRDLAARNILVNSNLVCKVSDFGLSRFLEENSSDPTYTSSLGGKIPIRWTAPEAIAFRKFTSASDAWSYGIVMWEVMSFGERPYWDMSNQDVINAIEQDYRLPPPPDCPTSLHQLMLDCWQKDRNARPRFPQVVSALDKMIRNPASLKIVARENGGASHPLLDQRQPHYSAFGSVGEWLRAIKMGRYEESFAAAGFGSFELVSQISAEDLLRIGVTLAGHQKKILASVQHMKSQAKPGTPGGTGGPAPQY
As to the kind of experiment: Eph receptor kinase activity assay (radiometric), EphB4. As to conditions: for remaining activity at 0.01 µM: 10 nM compound, read-out: EphB4 % act 10 nM; for remaining activity at 0.1 µM: 100 nM compound, read-out: EphB4 % act 100 nM; for remaining activity at 0.3 µM: 300 nM compound, read-out: EphB4 % act 300 nM.

The target in another assay is EphA4 (Homo sapiens, UniProt P54764). Nature of the assay: Eph receptor kinase activity assay (radiometric), EphA4. As to conditions: for remaining activity at 0.01 µM: 10 nM compound, read-out: EphA4 % act 10 nM; for remaining activity at 0.1 µM: 100 nM compound, read-out: EphA4 % act 100 nM; for remaining activity at 0.3 µM: 300 nM compound, read-out: EphA4 % act 300 nM.
Sequence of EphA4 (P54764 20-986): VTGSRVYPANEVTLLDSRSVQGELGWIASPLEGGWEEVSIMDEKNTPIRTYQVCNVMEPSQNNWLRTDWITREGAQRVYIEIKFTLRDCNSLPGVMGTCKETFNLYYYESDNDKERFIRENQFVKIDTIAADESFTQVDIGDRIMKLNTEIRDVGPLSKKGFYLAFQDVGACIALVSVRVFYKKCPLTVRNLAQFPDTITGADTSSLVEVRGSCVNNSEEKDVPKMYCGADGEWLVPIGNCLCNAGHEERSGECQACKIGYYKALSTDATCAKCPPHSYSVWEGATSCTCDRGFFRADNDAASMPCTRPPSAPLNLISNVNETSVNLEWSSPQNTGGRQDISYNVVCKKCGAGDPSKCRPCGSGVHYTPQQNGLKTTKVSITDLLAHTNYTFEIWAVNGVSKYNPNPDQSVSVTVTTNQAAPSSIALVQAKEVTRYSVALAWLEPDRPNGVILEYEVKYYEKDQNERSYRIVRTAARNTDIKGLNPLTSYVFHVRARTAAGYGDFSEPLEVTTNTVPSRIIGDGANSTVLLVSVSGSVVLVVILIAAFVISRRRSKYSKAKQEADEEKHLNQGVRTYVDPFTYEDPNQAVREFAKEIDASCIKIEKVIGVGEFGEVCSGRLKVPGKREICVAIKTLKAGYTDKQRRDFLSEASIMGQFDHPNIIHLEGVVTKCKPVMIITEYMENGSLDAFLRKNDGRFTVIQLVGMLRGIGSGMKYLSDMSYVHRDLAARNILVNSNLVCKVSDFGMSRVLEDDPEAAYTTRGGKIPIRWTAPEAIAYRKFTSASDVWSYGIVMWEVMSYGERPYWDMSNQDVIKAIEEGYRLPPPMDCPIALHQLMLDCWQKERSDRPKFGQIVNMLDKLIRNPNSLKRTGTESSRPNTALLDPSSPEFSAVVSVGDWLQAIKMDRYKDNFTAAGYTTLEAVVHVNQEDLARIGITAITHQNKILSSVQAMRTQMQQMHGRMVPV

The next assay concerns the target EphA2 (Homo sapiens, UniProt P29317). Nature of the assay: Eph receptor kinase activity assay (radiometric), EphA2. As to conditions: for remaining activity at 0.01 µM: 10 nM compound, read-out: EphA2 % act 10 nM; for remaining activity at 0.1 µM: 100 nM compound, read-out: EphA2 % act 100 nM; for remaining activity at 0.3 µM: 300 nM compound, read-out: EphA2 % act 300 nM.

Sequence of EphA2 (P29317 24-976): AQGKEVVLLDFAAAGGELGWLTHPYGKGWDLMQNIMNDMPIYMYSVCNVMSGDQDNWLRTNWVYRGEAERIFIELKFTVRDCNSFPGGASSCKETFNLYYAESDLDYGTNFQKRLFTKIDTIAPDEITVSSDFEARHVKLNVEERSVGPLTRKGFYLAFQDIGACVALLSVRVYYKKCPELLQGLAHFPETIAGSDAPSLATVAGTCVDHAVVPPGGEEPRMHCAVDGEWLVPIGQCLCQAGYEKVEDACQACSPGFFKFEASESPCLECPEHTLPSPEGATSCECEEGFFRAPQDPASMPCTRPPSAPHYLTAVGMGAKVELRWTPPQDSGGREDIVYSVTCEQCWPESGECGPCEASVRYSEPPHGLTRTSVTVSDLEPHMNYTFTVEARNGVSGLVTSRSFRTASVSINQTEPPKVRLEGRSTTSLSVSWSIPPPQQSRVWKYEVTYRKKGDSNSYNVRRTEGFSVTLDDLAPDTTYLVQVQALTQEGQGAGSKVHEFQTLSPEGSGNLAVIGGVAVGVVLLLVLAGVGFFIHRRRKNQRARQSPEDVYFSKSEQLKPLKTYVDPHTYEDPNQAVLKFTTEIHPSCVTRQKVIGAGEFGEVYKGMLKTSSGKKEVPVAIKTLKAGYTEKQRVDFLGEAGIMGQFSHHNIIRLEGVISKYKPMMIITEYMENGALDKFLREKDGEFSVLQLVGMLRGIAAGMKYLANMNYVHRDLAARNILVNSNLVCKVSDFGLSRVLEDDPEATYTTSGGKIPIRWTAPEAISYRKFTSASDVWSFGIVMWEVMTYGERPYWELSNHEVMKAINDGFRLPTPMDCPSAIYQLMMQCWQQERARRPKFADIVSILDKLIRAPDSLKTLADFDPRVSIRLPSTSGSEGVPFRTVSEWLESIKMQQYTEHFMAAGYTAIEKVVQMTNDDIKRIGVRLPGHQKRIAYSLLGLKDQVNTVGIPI

As for `NCc1cccc(-c2ccc3ncc(C(=O)Nc4ccccc4Cl)n3c2)c1` [compound 108, 6-(3-(Aminomethyl)phenyl)-N-(2-chlorophenyl)imidazo[1,2-a]pyridine-3-carboxamide], the remaining activity at 0.01 µM came to 46% at EphB3, 62% at EphB4, 36% at EphA4 and 55% on EphA2. The remaining activity at 0.1 µM was 7% at EphB3, 12% at EphB4, 12% at EphA4 and 25% at EphA2. In addition, the remaining activity at 0.3 µM is 4% at EphB3, 2% at EphB4, 6% at EphA4 and 11% at EphA2.
Take `NCc1ccc(-c2ccc3ncc(C(=O)Nc4ccccc4Cl)n3c2)cc1` [compound 109, 6-(4-(Aminomethyl)phenyl)-N-(2-chlorophenyl)imidazo[1,2-a]pyridine-3-carboxamide]: the remaining activity at 0.01 µM on EphB3 came to 22%; on EphB4, 22%; at EphA4, 24%; at EphA2 it was 77%. Moreover, the remaining activity at 0.1 µM on EphB3 stood at 6%; at EphB4, 6%; on EphA4 it was 8%; at EphA2 it was 11%. The remaining activity at 0.3 µM on EphB3 was found to be 4%; on EphB4 it was 3%; at EphA4, 5%; on EphA2, 0%.
As for `NC(=O)c1cccc(-c2ccc3ncc(C(=O)Nc4ccccc4Cl)n3c2)c1` [compound 110, 6-(3-Carbamoylphenyl)-N-(2-chlorophenyl)imidazo[1,2-a]pyridine-3-carboxamide], the remaining activity at 0.01 µM at EphB3 was determined as 58%; on EphB4 it was 75%; at EphA4 it was 65%; at EphA2 it was 71%. Also, the remaining activity at 0.1 µM stood at 39% on EphB3, 48% at EphB4, 36% on EphA4 and 46% at EphA2. The remaining activity at 0.3 µM at EphB3 is 7%; on EphB4 it was 3%; on EphA4, 12%; at EphA2, 21%.
For the compound `O=C(Nc1ccccc1Cl)c1cnc2ccc(-c3ccccn3)cn12` [compound 112, N-(2-chlorophenyl)-6-(pyridin-2-yl)imidazo[1,2-a]pyridine-3-carboxamide], the remaining activity at 0.01 µM on EphB3 is 50%; on EphB4 it was 37%; on EphA4 it was 50%; at EphA2, 53%. Also, the remaining activity at 0.1 µM on EphB3 was found to be 14%; on EphB4 it was 7%; on EphA4, 25%; at EphA2, 33%. In addition, the remaining activity at 0.3 µM at EphB3 was 7%; on EphB4 it was 2%; at EphA4, 12%; on EphA2, 14%.
As for `O=C(Nc1ccccc1Cl)c1cnc2ccc(-c3cccnc3)cn12` [compound 113, N-(2-Chlorophenyl)-6-(pyridin-3-yl)imidazo[1,2-a]pyridine-3-carboxamide], the remaining activity at 0.01 µM on EphB3 is 49%; on EphB4, 30%; on EphA4 it was 53%; at EphA2, 52%. Also, the remaining activity at 0.1 µM on EphB3 turned out to be 16%; at EphB4 it was 7%; on EphA4 it was 26%; at EphA2, 29%. Also, the remaining activity at 0.3 µM on EphB3 came to 11%; at EphB4 it was 4%; on EphA4 it was 19%; on EphA2 it was 17%.
With `O=C(Nc1ccccc1Cl)c1cnc2ccc(-c3ccncc3)cn12` [compound 114, N-(2-Chlorophenyl)-6-(pyridin-4-yl)imidazo[1,2-a]pyridine-3-carboxamide], the remaining activity at 0.01 µM was found to be 52% on EphB3, 39% on EphB4, 49% at EphA4 and 51% at EphA2. Also, the remaining activity at 0.1 µM on EphB3 was determined as 13%; at EphB4 it was 4%; at EphA4, 21%; at EphA2 it was 32%. Also, the remaining activity at 0.3 µM on EphB3 was determined as 5%; at EphB4, 4%; on EphA4, 10%; on EphA2 it was 14%.
Consider `O=C(Nc1ccccc1Cl)c1cnc2ccc(-c3ncccn3)cn12` [compound 115, N-(2-Chlorophenyl)-6-(pyrimidin-2-yl)imidazo[1,2-a]pyridine-3-carboxamide], for which the remaining activity at 0.01 µM at EphB3 was determined as 108%; on EphB4, 89%; on EphA4, 104%; on EphA2, 115%. The remaining activity at 0.1 µM came to 55% at EphB3, 32% at EphB4, 54% on EphA4 and 67% on EphA2. Moreover, the remaining activity at 0.3 µM at EphB3 was 28%; on EphB4, 9%; at EphA4, 34%; at EphA2 it was 40%.

The values are drawn from patent US20240189289A1, “INHIBITORS OF EPHB3 SIGNALING” (The Brigham and Women`s Hospital, Inc., priority 2021, published 2024).
